Measurements taken from patent EP0103895A2, “Novel hydroxylamine derivatives, production and use thereof” (MEIJI SEIKA KABUSHIKI KAISHA, priority 1982, dated 1984).

How the values were obtained:
[1] = test system: fowl roundworm (As. galli); experiment: Anthelmintic test in chickens infected with fowl roundworm, compound added to feed at 250 ppm and 1,000 ppm, E.P.G. and worm count on 5th day (Test Example E2); assay type: in vivo, Ascaridia galli; settings: for E.P.G. after 5 days: worm egg number in 1 g of fecal matter; for anthelmintic effect / inhibition in vivo at 250 ppm / inhibition in vivo at 1000 ppm: 5th day; for inhibition in vivo at 250 ppm / inhibition in vivo at 1000 ppm: Ascaridia galli, feed or water, 120 h, read-out: Anthelmintic effect
Description: Chickens infected with fowl roundworm (As. galli) were employed in groups each of two chickens.
The compound provided for the test was dissolved in a small amount of ethyl alcohol and adsorbed on defatted rice bran and added to chicken feed at levels of 250 ppm and 1,000 ppm. As control, a feed containing no such compound was employed.
Fecal matter testing was conducted before initiation of the test and on the 5th day after initiation of the test. The reduction in worm egg count was examined by calculating the E.P.G. (worm egg number in 1 g of fecal matter). The number of discharged worm bodies and the number of worm bodies remaining in the enteron when the chicken was killed on 5th day were counted to determined the anthelmintic percentage, from which the anthelmintic effect was judged.

[2] = test system: fowl roundworm (As. galli); experiment: Anthelmintic test in chickens infected with fowl roundworm, single oral dose of 40 mg per Kg, worm bodies counted within 24 hours (Test Example E1); assay type: in vivo, Ascaridia galli; settings: 40 mg per Kg oral in gelatin capsule; for inhibition in vivo at 40 mg/kg: Ascaridia galli, 24 h, chicken No.1, read-out: Anthelmintic effect after one day
Description: Chickens infected with fowl roundworm (As. galli) were employed in groups each consisting of five chickens. The compound provided for testing was orally administered in a quantity of 40 mg per Kg of body weight to each chicken in a gelatin capsule. The number of worm bodies discharged within 24 hours after administration of the medicine was counted. Then the chicken was killed, and the number of worm bodies remaining in the enteron was counted to determine the anthelmintic percentage, wherefrom the anthelmintic effect was judged.

[3] = 1000 ppm in feed, chicken No. 1
[4] = 1000 ppm in feed, chicken No. 2

SMILES	E.P.G. after 5 days ([1]; 250 ppm in feed, chicken No. 1)	anthelmintic effect ([1]; 250 ppm in feed, chicken No. 2)	E.P.G. after 5 days ([1]; 250 ppm in feed, chicken No. 2)	E.P.G. after 5 days [1, 3]	anthelmintic effect [1, 4]	E.P.G. after 5 days [1, 4]	inhibition in vivo at 250 ppm ([1]; 250 ppm in feed, chicken No. 1) [%]	inhibition in vivo at 1000 ppm [1, 3] [%]	inhibition in vivo at 40 mg/kg [2] [%]	Anthelmintic effect after one day ([2]; chicken No.2)	Anthelmintic effect after one day ([2]; chicken No.3)	Anthelmintic effect after one day ([2]; chicken No.4)	Anthelmintic effect after one day ([2]; chicken No.5)
C#CCON(CC#C)C(=O)CCCC [Compound E4, N,O-dipropargyl-N-valerylhydroxylamine]	0	+++ (100%)	0	0	+++ (100%)	0	100	100	100	+++ (100%)	+++ (100%)	+++ (100%)	+++ (100%)
C#CCON(CC#C)C(=O)CCCCC [Compound E5, N,O-dipropargyl-N-caproylhydroxylamine]	0	+++ (100%)	0	0	+++ (100%)	0	100	100	100	+++ (100%)	+++ (100%)	+++ (100%)	+++ (100%)
C#CCON(CC#C)C(=O)CCCCCCC/C=C\CCCCCCCC [Compound E6, N,O-dipropargyl-N-oleoylhydroxylamine]	0	+++ (100%)	0	0	+++ (100%)	0	100	100	100	+++ (100%)	+++ (100%)	+++ (100%)	+++ (100%)
C#CCON(CC#C)C(=O)c1ccccc1 [Compound E7, N,O-dipropargyl-N-benzoylhydroxylamine]	0	+++ (100%)	0	0	+++ (100%)	0	100	100	100	+++ (100%)	+++ (100%)	+++ (100%)	+++ (100%)
C#CCON(CC#C)C(=O)c1ccccc1Cl [Compound E8, N,O-dipropargyl-N-O-chlorobenzoylhydroxylamine]	0	+++ (100%)	0	0	+++ (100%)	0	100	100	100	+++ (100%)	+++ (100%)	+++ (100%)	+++ (100%)
